“Also recorded” adds a separate entry of the source.
How the values were obtained:
HNSCC tumor = conditions: 100 μg i.p., scid mice, reference 48; cited from earlier work
sIL-6R = sIL-6R release from OSCC cell lines (ELISA); assay type: cell-based, human; conditions: 5 μM 4-HPR, 2.5 μM 2-ME, 1 μg/ml TOC, 24 h
Protocol: FIGS. 5A and 5B show the evaluation of the effects of single and combination treatment of fenretinide (4-HPR, 5 μM), 2-methoxyestradiol (2-ME, 2.5 μM) and the IL-6R inhibitor TOC (1 ug/ml) on STAT3-DNA binding and on release of the stromal and tumor cell activating, trans-signaling molecule, sIL-6R. (A) Treatment effects of STAT3-DNA binding. All cell lines with constitutive pSTAT3 expression (2095sc, JSCC1, JSCC2) were sera deprived for 24 h, followed by an additional 24 hours of treatment in sera-free medium that contained: control (0.1% DMSO), 5 μM 4-HPR, 2.5 μM 2-ME, 1 μg/ml TOC (initial agent concentrations same for single and combinations). As the JSCC3 cells don't constitutively express pSTAT3, these cells underwent 24 h stimulation in base medium supplemented with 10 ng/mL of IL-6 and 5 ng/mL of TGF-α, with or without 4-HPR, 2-ME and TOC followed by harvest. […] (n=13, Kruskal Wallis ANOVA followed by Dunn's Multiple Comparison post hoc test). […] (B) Effects of treatment on cell line release of sIL-6R. All four cell lines released sIL-6R [levels ranges from ˜750 fg/10^6 (JSCC2 cells baseline) to ˜3,000 fg/10^6 cells (stimulated JSCC3 cells, baseline production JSCC3˜2,000 fg/10^6 cells). […]

SCC2095sc cells [1] = test: OSCC tumor xenografts, tumor volume; assay type: in vivo, nude mice; conditions: for inhibition of established OSCC tumor growth / tumor size: discussion of xenograft study
Protocol: One million SCC2095sc cells (suspended in 100 μl Matrigel) were subcutaneously injected in flanks of 6 to 7 week old male nude mice (n=6 per treatment group). By day 14 post injection, all mice had palpable and measurable tumors. Treatment began on day 15. Caliper-based tumor measurements were recorded daily and final tumor volumes calculated via tumor volume V=(length×width)×½. Treatment groups consisted of: 1) control (PBS injections)+blank (no drug) polylactide co-glycolide (PLGA) implants, 2) 2-methoxyestradiol (2-ME) (1 μg/100 μl PBS, b.i.d.)+blank PLGA implant, 3) fenretinide (4-HPR) releasing PLGA implant+PBS injections, 4) tocilizumab (TOC) q.d. (0.3 μg/100 μl PBS)+PLGA blank implant, 5) 2-ME (1 μg/100 μl PBS, b.i.d.)+4-HPR releasing PLGA implant, 6) 2-ME (1 μg/100 μl PBS, b.i.d.)+TOC q.d. (0.3 μg/100 μl PBS)+blank PLGA implant, 7) TOC q.d. (0.3 μg/100 μl PBS)+4-HPR releasing PLGA implant, 8) 2-ME (1 μg/100 μl PBS, b.i.d.)+TOC q.d. (0.3 μg/100 μl PBS)+4-HPR releasing PLGA implant. In previous studies that employed younger mice tumors of varying sizes were disbursed among all treatment groups. Due to the older age of mice >6 weeks and the accompanying cage aggression tumor size distribution was not feasible in these studies. As a result, mean tumor volumes varied appreciably among treatment groups. PLGA implants (trocar placement) and injections were placed in the center of the tumor. Fluid dispersion throughout tumor was noted during injections. At day 28 post OSCC xenograft placement the mice were sacrificed, OSCC tumors along with lung and liver tissues and sera were harvested (for PK and histologic analyses). […] Provided the discrepancy in pretreatment tumor volumes (TOC the lowest, triple treatment second highest with its mean nearly two fold higher than TOC mean), the TOC+2-ME+4-HPR data are especially creditable.
(§1) SCC2095sc cells [10^6 cells suspended in 100 μl Matrigel (Corning Life Sciences, Corning, N.Y.)] were subcutaneously injected in the flanks of 6 week old male nude mice (n=6 per treatment group). Tumor measurements were recorded daily with calipers (greatest length and greatest width) and final tumor volumes calculated via tumor volume V=(length×width)×½. Treatment groups consisted of: 1) control (PBS injections)+blank (no drug) PLGA implants, 2) 2-ME (1 μg/100 μl PBS, b.i.d.)+blank PLGA implant, 3) 4-HPR releasing PLGA implant+PBS injections, 4) TOC q.d. (0.3 μg/100 μl PBS)+PLGA blank implant, 5) 2-ME (1 μg/100 μl PBS, b.i.d.)+4-HPR releasing PLGA implant, 6) 2-ME (1 μg/100 μl PBS, b.i.d.)+TOC q.d. (0.3 μg/100 μl PBS)+blank PLGA implant, 7) TOC q.d. (0.3 μg/100 μl PBS)+4-HPR releasing PLGA implant, 8) 2-ME (1 μg/100 μl PBS, b.i.d.)+TOC q.d. (0.3 μg/100 μl PBS)+4-HPR releasing PLGA implant. By day 14 post injection, all mice had measurable tumors and treatment began on day 15. […] Pretreatment mean tumor volumes therefore varied among treatment groups. PLGA implants (via trocar) and injections were placed in the center of the tumor. At day 28 post OSCC xenograft placement final tumor measurements were obtained, the mice were euthanized and OSCC tumors along with lung, liver and sera were harvested for pharmacokinetic, histologic and IHC analyses (Ki-67, cleaved caspase-3 and involucrin). Image analyses of the nuclear stains (Ki-67 and cleaved caspase 3) were conducted using Image-Pro Plus 6.2 software (Media Cybernetics, Rockville, Md.).

[2] = cited from earlier work
[3] = test system: NF-κB subunits p65 and p50; test: NF-κB subunit DNA binding and activation in OSCC cells; assay type: cell-based, human; conditions: data not shown
Protocol: Twenty four hour sera-deprived cells were treated for an additional 24 hours in sera free media with the following: 1) 0.01% DMSO (vehicle control), 2) 5 μM 4-HPR, 3) 2.5 μM 2-ME, 4) 1 μg/ml tocilizumab (TOC, […]) 5) 5 μM 4-HPR+2.5 μM 2-ME, 6) 5 μM 4-HPR+1 μg/ml TOC, 7) 2.5 μM 2-ME+1 μg/ml TOC, 8) 5 μM 4-HPR+2.5 μM 2-ME+1 μg/ml TOC. Following treatment, conditioned media were collected (ELISAs for IL-6, sIL-6R, TGF-α, VEGF, EGF, R&D Systems, Minneapolis, Minn.) and nuclear and cytosolic lysates (Nuclear Extract Kit, Active Motif, Carlsbad, Calif.) isolated for EMSAs (STAT3, NFκB p50 and p65, TransAM Transcription Factor ELISAs, Active Motif) and cytosolic and nuclear extracts for Westerns (NE-PER Nuclear and Cytoplasmic Extraction Reagents, ThermoFisher Scientific, Waltham Mass.). […]

SCC2095sc cells [4] = test: IHC of OSCC xenograft tumors (Ki-67, cleaved caspase 3, involucrin); assay type: in vivo, nude mice; conditions: qualitative
Description: IHC images representative of all of the groups are presented. The PLGA implants are visible as a clear cylindrical object in every photomicrograph except the TOC and 2-ME+TOC treatment. To facilitate PLGA implant recognition, arrows have been placed within the implants. Both the Ki-67 and caspase 3 stains are located within the nucleus. Qualitative Ki67 staining assessment was most apparent at the periphery of the tumors in all groups. In contrast to the abundant Ki-67 staining, cleaved caspase 3 was not nearly as prominent.
(Image scale 4× and 10× for smaller and larger photomicrographs, respectively).
SCC2095sc cells [10^6 cells suspended in 100 μl Matrigel (Corning Life Sciences, Corning, N.Y.)] were subcutaneously injected in the flanks of 6 week old male nude mice (n=6 per treatment group). Tumor measurements were recorded daily with calipers (greatest length and greatest width) and final tumor volumes calculated via tumor volume V=(length×width)×½. Treatment groups consisted of: 1) control (PBS injections)+blank (no drug) PLGA implants, 2) 2-ME (1 μg/100 μl PBS, b.i.d.)+blank PLGA implant, 3) 4-HPR releasing PLGA implant+PBS injections, 4) TOC q.d. (0.3 μg/100 μl PBS)+PLGA blank implant, 5) 2-ME (1 μg/100 μl PBS, b.i.d.)+4-HPR releasing PLGA implant, 6) 2-ME (1 μg/100 μl PBS, b.i.d.)+TOC q.d. (0.3 μg/100 μl PBS)+blank PLGA implant, 7) TOC q.d. […]

[5] = In vitro release of 2-ME from PLGA; assay type: physicochemical; conditions: two low molecular weight acid-capped PLGA 50/50s, 10% 2-ME loading
Description: In one embodiment, 2-ME in PLGA can maximize drug loading and facilitate continuous release of the steroid over the correct time scale of release in vivo. Maximizing drug loading can provide more flexibility for dosing and increase the probability of attaining local therapeutic levels. IN one embodiment, the steroid is slowly and continuously released for >1 month in vitro from two different low molecular weight acid-capped PLGA 50/50s at 10% 2-ME loading.
2-ME with/without excipients can be combined with acid-capped PLGA 50/50 (13-24 kD) in acetone and extruded. Drug loading is typically about 10-50%. Drug loading can be determined by HPLC after dissolving implants in acetonitrile. Release kinetics in vitro can be performed in PBS+0.02% Tween 80 (PBST) at 37° C. under perfect sink conditions with HPLC detection.

[6] = 4-HPR release from PLGA implants, tumor and sera levels (UPLC/UV); assay type: in vivo, nude mice; conditions: UPLC/UV vs calibration standard
Description: Determination of 4-HPR tumor levels entailed recording tumor wet mass, addition of internal standard (acitretin) and RIPA lysis buffer, followed by homogenization, addition of acetonitrile and centrifugation. Acetretin percent recovery was compared to a RIPA buffer/acetonitrile extraction control solution spiked with equivalent amount of acetretin and 4-HPR. Sera preparation entailed addition of acetretin and acetonitrile, sonication, followed by centrifugation.
as §1

[7] = test system: EGFR, ERK1/2 and STAT3 phosphorylation; test: Effect of receptor targeted inhibitors on OSCC signaling (immunoblot); assay type: cell-based, human; conditions: 100 nM
Protocol: The accompanying histogram depicts levels of phosphorylated […], ERK1/2 and STAT3 relative to GAPDH.
Dosing levels were determined by concurrent proliferation and viability studies in conjunction with literature values. The cells in every treatment group were then stimulated for 20 minutes with: vehicle (1 μl ddH2O), 50 ng/ml EGF, 50 ng/ml VEGF, or 50 ng/ml EGF+50 ng/ml VEGF, followed by standard immunoblotting and data normalization relative to GAPDH. […] Immunoblot images were captured (Li-Cor Odyssey imager) and analyzed (Li-Cor Image Studio, Version 4.0) to depict effects on treatment on phosphorylation relative to respective levels of GAPDH.

## TOC: humanized monoclonal antibody to the IL-6R receptor tocilizumab
HNSCC tumor
  HNSCC tumor initiation: significantly reduced HNSCC tumor initiation
  established tumor growth: didn't significantly inhibit established tumor growth
sIL-6R
  sIL-6R release: significantly reduced
sIL-6R; listed as tocilizumab
  sIL-6R release: significantly inhibited
SCC2095sc cells [1]; day 15 to day 28, intratumoral treatment
  mean tumor fold size increase: 2.13 fold
SCC2095sc cells [1]
  inhibition of established OSCC tumor growth / tumor size: significantly inhibited OSCC tumor growth
SCC2095sc cells [1]; intratumoral, TOC 0.3 μg q.d., 2-ME 1 μg b.i.d., 4-HPR PLGA implant, paired t test
  increase in tumor volume over 14 days: prevented a significant increase in tumor volume
[2]
  half-life: ~19 h

## COc1cc2c(cc1O)CC[C@@H]1[C@@H]2CC[C@]2(C)[C@@H](O)CC[C@@H]12 [2-ME, 2-Methoxyestradiol]
[3]
  NF-κB activation in OSCC cells: didn't inhibit
SCC2095sc cells [1]; 2-ME treatment group
  tumor cell invasion and metastasis: Lymphovascular (several mice) and perineural (single mouse) invasion
SCC2095sc cells [1]
  inhibition of established OSCC tumor growth / tumor size: lack of 2-ME efficacy
[2]
  half-life: ~4 h
SCC2095sc cells [4]
  involucrin expression (differentiation): most intense expression
[5]
  duration of slow continuous release in vitro: > 1 month

## CC1=C(/C=C/C(C)=C/C=C/C(C)=C/C(=O)Nc2ccc(O)cc2)C(C)(C)CCC1=O [4-oxo-4-HPR, 4-oxo-fenretinide]
[6]
  oxidized metabolite in tumor or sera samples: no evidence

## COC(=O)c1ccc2c(c1)NC(=O)/C2=C(\Nc1ccc(N(C)C(=O)CN2CCN(C)CC2)cc1)c1ccccc1 [Vargatef]
[7]; JSCC1 and JSCC2 cells
  phosphorylated STAT3 despite treatment: high to moderate levels of phosphorylated STAT3 persisted; also recorded: pSTAT3 persisted
[7]; JSCC3 cells, 1 h pretreatment, EGF/VEGF stimulation
  phosphorylation at the EGFR, ERK1/2 and STAT3 levels: reduced phosphorylation; also recorded: blocked STAT3 phosphorylation

— US11484591B2, “Chemoprevention using controlled-release formulations of anti-interleukin 6 agents, synthetic vitamin A analogues or metabolites, and estradiol metabolites” (OHIO STATE INNOVATION FOUNDATION, priority 2016, dated 2022)
